Measured values reported in a melting point compilation (Tetko et al.; mined from patent text by program, amines drawn as free bases though some values may be those of a salt).

| Structure (SMILES) | melting point |
| --- | --- |
| COc1cc(N)c(Cl)cc1C(=O)NC1CCN(CCNC(=O)C(O)c2ccccc2)CC1OC (stereo not drawn) | 228 °C |
| CCCCc1ncc(CC(Cc2ccccc2)C(=O)OC)n1Cc1ccccc1Cl (stereo not drawn) | 118 to 120 °C |
| CCN1C(=O)C2C3CCC(CC3)C2(c2ccc(Cl)c(Cl)c2)C1=O (stereo not drawn) | 131 to 134 °C |
| N#Cc1nn(-c2c(Cl)cc(C(F)(F)F)cc2Cl)c(N)c1-c1cc(Br)no1 | 227 °C |
| FC(F)(F)c1cc(-c2ccc(Cl)c(Cl)c2)nc2c(-c3cccnc3)cnn12 | 224 °C |
| CCCCCNc1cccc2c1C(=O)N(C1CCC(=O)NC1=O)C2=O (stereo not drawn) | 141 to 143 °C |
| COc1ccc(CNc2cc3c(Nc4ccc(F)c(Br)c4)ncnc3cn2)cc1 | 181 to 184 °C |
| Cc1cc(C)nc(NC(=O)NS(=O)(=O)c2c([N+](=O)[O-])ccc3c2CCC3)n1 | 172 °C |
| CCOC(=O)NC(=NC(=O)c1nc(Cl)c(N)nc1N)NC(=O)OCC | 213 °C |
| N=C(Nc1ccc2[nH]cc(C3CCN(C(=N)c4cccs4)CC3)c2c1)c1cccs1 | 115 to 117 °C |
| O[C@H](CN[C@H]1CCCc2ccccc21)COc1cccc2ccccc12 | 107 to 109 °C |
| CCc1c(Cl)nc(NC=O)nc1Cl | 116 to 118 °C |
| CNC(=O)NC(=O)C(CC1CCCC1O)c1ccc(Cl)c(Cl)c1 (stereo not drawn) | 62 to 64 °C |
| Cc1cc(C(=O)c2ccc(C(=O)c3cc(C)c(OCC4CO4)c(C)c3)cc2)cc(C)c1OCC1CO1 (stereo not drawn) | 164 to 170 °C |
| Clc1cc(C(Cl)(Cl)Cl)nc(C(Cl)(Cl)Cl)c1 | 101 to 102 °C |
| Fc1ccc(CN(C(=S)Nc2ccccc2)C2CCCC2)cc1 | 135 °C |
| O=c1ccn(CCO)c(C(O)c2ccc(F)cc2)c1O (stereo not drawn) | 187 to 188 °C |
| CCCCCCCCCCC1COC(=O)N1 (stereo not drawn) | 31.5 to 32.5 °C |
| O=C(O)CP(=O)(O)CCc1ccccc1 | 120 to 121 °C |
| C=Cc1ccc(C(C#N)C#N)cc1 | 40 to 42 °C |
| COC(=O)Cc1ccc(C(F)(F)F)cc1[N+](=O)[O-] | 104 to 105 °C |
| CC(C)(C)OC(=O)N[C@@H]1C[C@H](CO)[C@@H](O)C1 | 126 to 128 °C |
| CNC(=O)C1CCNc2ccccc21 (stereo not drawn) | 107 °C |
| COc1ccc(/C=C/C(=O)OCC(=O)COC(=O)/C=C/c2ccc(OC)cc2)cc1 | 146 to 148 °C |
| Cn1ncnc1-c1oc2cccc(CCc3ccc(F)cc3)c2c(=O)c1O | 192 to 193 °C |

| Structure (SMILES) | melting point |
| --- | --- |
| Oc1ccc(-c2nn(C3CCC3)c3c(C(F)(F)F)cccc23)c(O)c1 | 124 to 125 °C |
| Cc1c(-c2ccc(O)cc2)sc(C#N)c1-c1ccc(O)cc1 | 282 to 284 °C |
| CN(Cc1ccco1)C(=O)C=C1OC(C)(C)OC1=O | 83 to 86 °C |
| CCOC(=O)C(=O)NNc1ccc([N+](=O)[O-])cc1 | 187 to 188 °C |
| COC(=O)CNC(=O)c1ccc(NS(=O)(=O)c2ccc(F)cc2)cn1 | 146 to 148 °C |
| CCOc1cc2c(-c3ccnc(Cl)c3)c(C(=O)OC)c(C(=O)OC)cc2cc1OC | 196 to 198 °C |
| O=[N+]([O-])c1ccc2c(c1)CS(=O)(=O)N2CCF | 142 to 144 °C |
| OCc1nnc2n1-c1ccc(Cl)cc1C(c1ccccc1)=NC2 | 204 to 206 °C |
| O=C(O)c1c(-c2cc(Cl)cc(Cl)c2)c2ccccc2n1Cc1cc2c(cc1Cl)OCO2 | 221 to 222 °C |
| CC1(C)CCSc2ccc(-c3cc(-c4ccc(C(=O)O)cc4)ccc3-c3ccccc3)cc21 | 51 °C |
| CN(C)c1ccc2sc(S(N)(=O)=O)cc2c1 | 197 to 199 °C |
| COc1nc2cc(Cl)cc(CCCO)c2nc1OC | 104 to 105 °C |
| CCc1nnc2ccc(-c3ccc(C(F)(F)F)cc3)nn12 | 194 to 196 °C |
| COc1ccc(C(C#Cc2cnc(N)nc2)Cc2nc(C)co2)cc1OC1CCCC1 (racemic) | 103 to 105 °C |
| O=C(O)CCc1[nH]c2cc(Cl)cc(Cl)c2c1Br | 228 °C |
| CCC1(CC)Cc2cc(O)c(Cl)c(Cl)c2C1=O | 184 °C |
| COc1ccc2c(c1)N(c1ccc(F)cc1)C(=O)C2NC(=O)c1cc2ccccc2cn1 (stereo not drawn) | 219 to 220 °C |
| COCOCC#Cc1nc(-c2ccc(=O)n(C(C)C)n2)c(-c2ccccc2)nc1N | 133 to 135 °C |
| CN(C)Nc1c([N+](=O)[O-])cc(C(F)(F)F)c(N)c1[N+](=O)[O-] | 150 to 154 °C |
| CCOC(=O)C1(F)C(=O)NC(=O)NC1O/N=C\c1ccc(C)o1 (stereo not drawn) | 163 to 164 °C |
| Cc1cccc(-c2cc(F)c3c(c2)CC(CN)O3)c1 (stereo not drawn) | > 250 °C |
| CC1(C)SC(C)(C)C1C(=O)O | 149 to 151 °C |
| CCN(CC)c1ccc(CN2CCC(NC(=O)Nc3ccccc3CCc3cc(C(C)(C)C)c(O)c(C(C)(C)C)c3)CC2)cc1 | 138 to 141 °C |
| CCCC(=O)c1cnc2c(OCC)nccc2c1Nc1ccccc1C | 112 °C |
| Nc1ccc(C(=O)NNCCC(=O)OCc2ccccc2)cc1 | 96 to 97 °C |

| Structure (SMILES) | melting point |
| --- | --- |
| CCCn1ncc2c(=O)[nH]c(-c3cc(C(=O)CN4CCOCC4)ccc3OCC)nc21 | 160 to 162 °C |
| CC(C)(C)OC(=O)[C@H](Cc1ccc(O)cc1)NC(=O)c1c(Cl)cccc1Cl | 177 to 178 °C |
| CCOC(=O)C1=C[C@H](O)[C@H](NC(C)=O)[C@@H](N=[N+]=[N-])C1 | 51 to 53 °C |
| CC(C)(C)OC(=O)NCCC(=O)NCc1cccc2c1CN(C1CCC(=O)NC1=O)C2=O (stereo not drawn) | 203 to 205 °C |
| CCCCCCc1cc2c(s1)NC(=O)CN=C2c1ccc(OC)cc1 | 123 to 125 °C |
| O=C(CCC(=O)N1CCC(c2ccc(Cl)cc2)CC1)c1ccc2c(c1)CNCC2 | 121 to 122 °C |
| Nc1ccccc1Cc1nc[nH]n1 | 134 to 136 °C |
| Cc1ccnc(Sc2nc(C)c(CC(=O)O)s2)c1C(=O)O | 208 to 210 °C |
| CN(C)CCN1Cc2cccc3cccc(c23)S1(=O)=O | 97 to 98 °C |
| COc1ccc(Cc2c(-c3ccc(OC(F)F)c(OC4CC4)c3)[nH]c3cn[nH]c(=O)c23)cn1 | 220 to 221 °C |
| O=C(C(=CO)c1ccccc1)c1ccccc1 | 110 to 114 °C |
| CN1CC(CCCl)c2nc3ccccc3n2C1=O (stereo not drawn) | 88 to 91 °C |
| N#CC(C#N)=C1N(CCCN2CCCCC2)CCN1C1CCN(C(=O)C2CC2)CC1 | 131 to 133 °C |
| CCc1cc(-c2cccc(NC(C)=O)n2)c(OC)cc1OCCN(C)C | 114 °C |
| Cc1cccc(NC(=O)NC2N=C(c3ccccc3F)c3ccccc3N(CC(=O)O)C2=O)c1 (racemic) | 167 to 169 °C |
| Cc1ccc(-c2c(-c3ccc(S(N)(=O)=O)cc3)cnn(-c3ccc(F)cc3)c2=O)cc1F | 187 to 188 °C |
| CN(Cc1ccc(NC(=O)C2=Cc3cc(-c4ccc(OCC(N)=O)cc4)ccc3S(=O)(=O)CC2)cc1)C1CCOCC1 | 240 to 243 °C |
| CCCCCCCCCCCCCCCCCCOc1cc(OCc2ccccc2)cc(C(=O)N(CC(=O)O)CC(=O)O)c1 | 93 to 95 °C |
| N#CC(C=O)=C(c1ccc(F)cc1)c1ccc(F)cc1 | 167 to 169 °C |
| Clc1ccccc1-c1n[nH]cc1Br | 80 °C |
| CCN(CC)CCNc1cc(Sc2ccc(Cl)cc2)nc(-c2ccccc2)n1 | 83.5 to 86 °C |
| C/C(=C/C(=O)O)c1ccn(-c2c(C)cccc2C)c1 | 78 to 80 °C |
| O=C(O)c1ccc2c(c1)C=CC(=CCl)CO2 | > 260 °C |
| CC1(C)CCC(C)(C)c2cc(CC#Cc3ccc(CO)c(O)c3)ccc21 | 94 to 95 °C |
| Nc1sc2c(c1Cc1cccs1)CCN(Cc1ccccc1)C2 | 122 to 123 °C |

| Structure (SMILES) | melting point |
| --- | --- |
| Cc1nc(Cn2nc(C(F)(F)F)cc2C(F)(F)F)ccc1NC(=O)c1cccc(Cl)c1C(=O)N[C@@H](C)CS(C)=O (stereo partly drawn) | 183 °C |
| O=C(O)C(=O)c1ccc(OCCCn2c(=O)c3ccccc3c3ccccc32)cc1 | 202 to 204 °C |
| C#CCN(c1ccc(C(=O)OC(C)(C)C)cc1)C1CCc2cc3nc(COC(=O)C(C)(C)C)[nH]c(=O)c3cc21 (racemic) | 134 °C |
| COc1nc(C(F)(F)C(F)(F)F)c(F)c(=O)n1-c1cc(C(=O)OC(C)C)c(Cl)cc1F | 75 to 77 °C |
| CC(C)C(=O)Oc1ccc2c(c1)CCC1C2CCC2(C)C1CC(O[Si](C)(C)C(C)(C)C)C2OC(=O)C(C)C (stereo not drawn) | 114 °C |
| CCOC(=O)c1cc(-c2ccc(C(F)(F)F)cc2)n[nH]1 | 162 °C |
| CC(C)(C)OC(=O)N[C@H]1CNC1=O | 173 to 175 °C |
| COc1ccccc1N1CCN(C(=O)c2ccccc2C(c2ccc(O)cc2)c2ccc(O)cc2)CC1 | 229 to 231 °C |
| CC(=O)OC1CCC2C3C(Sc4ccc(O)cc4)C(=O)c4cc(O)ccc4C3CCC12C (stereo not drawn) | 150 to 155 °C |
| O=C1c2nccnc2C(Cl)N1c1ccc2ccc(Cl)nc2n1 (stereo not drawn) | 264 °C |
| CC(=O)NC[C@H]1CN(c2ccc(N3CCN(CCN4CCCCC4)CC3)c(F)c2)C(=O)O1 | 169 to 170 °C |
| CC(C)(C)NC(=O)C#CBr | 113 °C |
| COc1cc(OC)cc(N2CCN(C(=O)Nc3cc4ccccc4cc3OC)CC2)c1 | 191 to 193 °C |
| O=C(O)Cc1cc(Cl)cc(Cl)c1OCCc1ccccc1 | 73 to 76 °C |
| COc1ccc(-c2ccc3nn(-c4cc(C(C)(C)CC(C)(C)C)cc(C(C)(C)c5ccccc5)c4O)nc3c2)cc1 | 129 to 131 °C |
| CCc1ccc2c3c(ccc2n1)OCC(CN1CC=C(c2c[nH]c4ccccc24)CC1)O3 (stereo not drawn) | 190 °C |
| Cc1cc(-c2cc(C(F)(F)F)nc(-n3cnc(-c4ccc(S(N)(=O)=O)cc4)c3)n2)ccc1C(F)(F)F | 287 °C |
| CN1CCC(=C(c2ccn(C)c2)c2ncc[nH]2)CC1 | 155 °C |
| O=C(NCC(=O)c1ccco1)c1ccccc1 | 132 to 133 °C |
| C=CCN1CCc2cc(OC[C@H]3CO[C@](Cn4ccnc4)(c4ccc(Cl)cc4Cl)O3)ccc2C1 (racemic) | 94 to 95 °C |
| Cc1c(Cl)cccc1S(=O)(=O)Nc1nc(CC(=O)Oc2ccccc2)cs1 | 189 °C |
| COc1cc(OC)nc(C2(C#N)OC(=O)c3c(Cl)cccc32)n1 (stereo not drawn) | 159 to 161 °C |
| CC(=O)N1CCN(Cc2cnc(-c3cc4c(C)ccc(N(C)S(=O)(=O)c5cccs5)c4[nH]3)s2)CC1 | 171 to 172 °C |
